From ChEMBL document CHEMBL4477225, “Development of a cell viability assay to assess drug metabolite structure-toxicity relationships” (Bioorg Med Chem Lett, 2016) come the findings set out here.

Structures are written as SMILES.

Format in all cases: ADME, cell-based
Common to all, as to conditions: recombinant enzyme

For data set [1], the target named is T1, Cytochrome P450 2C9 (Homo sapiens, UniProt P11712). Kind of data set: Drug activation in human Hep3B cells assessed as human CYP2C9-mediated drug metabolism-induced cytotoxicity measured as decrease in cell viability at 174.8 uM pre-incubated with BSO for 18 hrs followed by incubation with compound for 3 hrs in presence of NADPH measured after 24 hrs in absence of compound, CYP3A4 and NADPH by cell titer-glo luminescence assay relative to BSO alone.
T1 sequence (P11712 whole entry): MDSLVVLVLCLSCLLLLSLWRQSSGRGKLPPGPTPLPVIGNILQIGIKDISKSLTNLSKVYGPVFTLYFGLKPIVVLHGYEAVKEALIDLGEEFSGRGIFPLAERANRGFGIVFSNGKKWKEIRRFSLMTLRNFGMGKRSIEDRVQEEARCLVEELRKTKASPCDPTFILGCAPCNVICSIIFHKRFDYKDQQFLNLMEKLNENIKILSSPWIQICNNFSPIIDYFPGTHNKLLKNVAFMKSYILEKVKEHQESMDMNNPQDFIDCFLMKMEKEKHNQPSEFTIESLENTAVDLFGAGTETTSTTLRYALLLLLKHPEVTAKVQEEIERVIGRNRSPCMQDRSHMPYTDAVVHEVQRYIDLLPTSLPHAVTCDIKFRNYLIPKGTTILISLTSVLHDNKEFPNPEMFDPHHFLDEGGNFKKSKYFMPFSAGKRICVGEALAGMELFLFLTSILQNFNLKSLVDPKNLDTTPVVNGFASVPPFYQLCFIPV

Data set [2] concerns the target T2, Cytochrome P450 2D6 (Homo sapiens, UniProt P10635). The data set is described as follows: Drug activation in human Hep3B cells assessed as human CYP2D6-mediated drug metabolism-induced cytotoxicity measured as decrease in cell viability at 113.7 uM pre-incubated with BSO for 18 hrs followed by incubation with compound for 3 hrs in presence of NADPH measured after 24 hrs in absence of compound, CYP3A4 and NADPH by cell titer-glo luminescence assay relative to BSO alone. A general note: Cellular ATP, detected with luciferase, serves as a proxy for viable cell number.

In data set [3] the target is T3, Cytochrome P450 3A4 (Homo sapiens, UniProt P08684). The data set is described as follows: Drug activation in human Hep3B cells assessed as human CYP3A4-mediated drug metabolism-induced cytotoxicity measured as decrease in cell viability at 90.1 uM pre-incubated with BSO for 18 hrs followed by incubation with compound for 3 hrs in presence of NADPH measured after 24 hrs in absence of compound, CYP3A4 and NADPH by cell titer-glo luminescence assay relative to BSO alone.
T3 sequence (P08684 whole entry): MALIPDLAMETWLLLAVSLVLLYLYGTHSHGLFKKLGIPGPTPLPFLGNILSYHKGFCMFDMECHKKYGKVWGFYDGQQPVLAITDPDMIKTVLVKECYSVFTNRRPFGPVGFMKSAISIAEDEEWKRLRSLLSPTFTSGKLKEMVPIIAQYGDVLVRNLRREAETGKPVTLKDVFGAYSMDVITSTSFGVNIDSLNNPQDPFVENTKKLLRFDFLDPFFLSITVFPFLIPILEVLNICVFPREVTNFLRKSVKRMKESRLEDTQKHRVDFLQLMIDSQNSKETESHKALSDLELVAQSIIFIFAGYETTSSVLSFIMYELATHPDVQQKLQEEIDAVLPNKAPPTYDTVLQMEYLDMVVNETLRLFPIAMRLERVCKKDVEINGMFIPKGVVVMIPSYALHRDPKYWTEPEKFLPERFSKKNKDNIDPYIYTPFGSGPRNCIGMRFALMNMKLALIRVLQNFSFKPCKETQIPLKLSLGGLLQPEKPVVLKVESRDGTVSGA

Data set [4] deals with T1, Cytochrome P450 2C9. The data set is described as follows: Drug activation in human Hep3B cells assessed as human CYP2C9-mediated drug metabolism-induced cytotoxicity measured as decrease in cell viability at 34 uM pre-incubated with BSO for 18 hrs followed by incubation with compound for 3 hrs in presence of NADPH measured after 24 hrs in absence of compound, CYP3A4 and NADPH by cell titer-glo luminescence assay relative to BSO alone.

Data set [5] addresses T3, Cytochrome P450 3A4. Kind of data set: Drug activation in human Hep3B cells assessed as human CYP3A4-mediated drug metabolism-induced cytotoxicity measured as decrease in cell viability at 29.6 uM pre-incubated with BSO for 18 hrs followed by incubation with compound for 3 hrs in presence of NADPH measured after 24 hrs in absence of compound, CYP3A4 and NADPH by cell titer-glo luminescence assay relative to BSO alone.

Data set [6] addresses T1, Cytochrome P450 2C9. Kind of data set: Drug activation in human Hep3B cells assessed as human CYP2C9-mediated drug metabolism-induced cytotoxicity measured as decrease in cell viability at 49.7 uM pre-incubated with BSO for 18 hrs followed by incubation with compound for 3 hrs in presence of NADPH measured after 24 hrs in absence of compound, CYP3A4 and NADPH by cell titer-glo luminescence assay relative to BSO alone.

Data set [7] has as its target T2, Cytochrome P450 2D6. The data set is described as follows: Drug activation in human Hep3B cells assessed as human CYP2D6-mediated drug metabolism-induced cytotoxicity measured as decrease in cell viability at 79.2 uM pre-incubated with BSO for 18 hrs followed by incubation with compound for 3 hrs in presence of NADPH measured after 24 hrs in absence of compound, CYP3A4 and NADPH by cell titer-glo luminescence assay relative to BSO alone.

Data set [8] addresses T2, Cytochrome P450 2D6. The data set is described as follows: Drug activation in human Hep3B cells assessed as human CYP2D6-mediated drug metabolism-induced cytotoxicity measured as decrease in cell viability at 13 uM pre-incubated with BSO for 18 hrs followed by incubation with compound for 3 hrs in presence of NADPH measured after 24 hrs in absence of compound, CYP3A4 and NADPH by cell titer-glo luminescence assay relative to BSO alone.

Data set [9] concerns the target T1, Cytochrome P450 2C9. Kind of data set: Drug activation in human Hep3B cells assessed as human CYP2C9-mediated drug metabolism-induced cytotoxicity measured as decrease in cell viability at 9.1 uM pre-incubated with BSO for 18 hrs followed by incubation with compound for 3 hrs in presence of NADPH measured after 24 hrs in absence of compound, CYP3A4 and NADPH by cell titer-glo luminescence assay relative to BSO alone.

The target of data set [10] is T1, Cytochrome P450 2C9. The data set is described as follows: Drug activation in human Hep3B cells assessed as human CYP2C9-mediated drug metabolism-induced cytotoxicity measured as decrease in cell viability at 452.5 uM pre-incubated with BSO for 18 hrs followed by incubation with compound for 3 hrs in presence of NADPH measured after 24 hrs in absence of compound, CYP3A4 and NADPH by cell titer-glo luminescence assay relative to BSO alone.

The target in data set [11] is T2, Cytochrome P450 2D6. Kind of data set: Drug activation in human Hep3B cells assessed as human CYP2D6-mediated drug metabolism-induced cytotoxicity measured as decrease in cell viability at 2.1 uM pre-incubated with BSO for 18 hrs followed by incubation with compound for 3 hrs in presence of NADPH measured after 24 hrs in absence of compound, CYP3A4 and NADPH by cell titer-glo luminescence assay relative to BSO alone.

The target of data set [12] is T3, Cytochrome P450 3A4. The data set is described as follows: Drug activation in human Hep3B cells assessed as human CYP3A4-mediated drug metabolism-induced cytotoxicity measured as decrease in cell viability at 53.7 uM pre-incubated with BSO for 18 hrs followed by incubation with compound for 3 hrs in presence of NADPH measured after 24 hrs in absence of compound, CYP3A4 and NADPH by cell titer-glo luminescence assay relative to BSO alone.

The target of data set [13] is T2, Cytochrome P450 2D6. Kind of data set: Drug activation in human Hep3B cells assessed as human CYP2D6-mediated drug metabolism-induced cytotoxicity measured as decrease in cell viability at 52.1 uM pre-incubated with BSO for 18 hrs followed by incubation with compound for 3 hrs in presence of NADPH measured after 24 hrs in absence of compound, CYP3A4 and NADPH by cell titer-glo luminescence assay relative to BSO alone.

The target in data set [14] is T3, Cytochrome P450 3A4. Kind of data set: Drug activation in human Hep3B cells assessed as human CYP3A4-mediated drug metabolism-induced cytotoxicity measured as decrease in cell viability at 70.3 uM pre-incubated with BSO for 18 hrs followed by incubation with compound for 3 hrs in presence of NADPH measured after 24 hrs in absence of compound, CYP3A4 and NADPH by cell titer-glo luminescence assay relative to BSO alone.

Data set [15] addresses T1, Cytochrome P450 2C9. Kind of data set: Drug activation in human Hep3B cells assessed as human CYP2C9-mediated drug metabolism-induced cytotoxicity measured as decrease in cell viability at 88.3 uM pre-incubated with BSO for 18 hrs followed by incubation with compound for 3 hrs in presence of NADPH measured after 24 hrs in absence of compound, CYP3A4 and NADPH by cell titer-glo luminescence assay relative to BSO alone.

T2 sequence (P10635 whole entry): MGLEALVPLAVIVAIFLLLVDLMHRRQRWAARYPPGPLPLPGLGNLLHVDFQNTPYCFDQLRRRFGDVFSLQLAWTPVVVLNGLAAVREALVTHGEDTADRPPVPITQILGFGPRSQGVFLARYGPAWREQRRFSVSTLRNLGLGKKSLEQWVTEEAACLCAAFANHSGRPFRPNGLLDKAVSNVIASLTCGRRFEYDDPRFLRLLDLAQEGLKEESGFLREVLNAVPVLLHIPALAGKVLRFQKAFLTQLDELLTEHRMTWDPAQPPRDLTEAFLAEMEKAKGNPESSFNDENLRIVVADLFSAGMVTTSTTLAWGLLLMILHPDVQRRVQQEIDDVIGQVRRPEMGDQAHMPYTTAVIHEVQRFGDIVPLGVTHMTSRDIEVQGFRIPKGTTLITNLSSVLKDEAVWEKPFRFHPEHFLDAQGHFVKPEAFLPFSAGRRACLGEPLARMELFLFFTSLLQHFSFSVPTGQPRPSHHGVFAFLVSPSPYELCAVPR

On to `CC(C)C(=O)Nc1ccc([N+](=O)[O-])c(C(F)(F)F)c1` [FLUTAMIDE], for which the figures for the “fold change (FC)” value on Cytochrome P450 2C9 [1], at Cytochrome P450 2D6 [2] and on Cytochrome P450 3A4 [3] were 0.8, 1.2 and 1.6, respectively.
As for `CC(=O)N1CCN(c2ccc(OCC3COC(Cn4ccnc4)(c4ccc(Cl)cc4Cl)O3)cc2)CC1` (stereo not given) [KETOCONAZOLE], at Cytochrome P450 2C9 [4], the “fold change (FC)” value was determined as 1.4.
On to `CC(C)(O)c1ccccc1CC[C@@H](SCC1(CC(=O)O)CC1)c1cccc(/C=C/c2ccc3ccc(Cl)cc3n2)c1` [MONTELUKAST], for which the “fold change (FC)” value on Cytochrome P450 3A4 [5] amounted to 1.2; at Cytochrome P450 2C9 [6], 0.7; at Cytochrome P450 2D6 [7], 0.5.
In the case of `Fc1ccc([C@@H]2CCNC[C@H]2COc2ccc3c(c2)OCO3)cc1` [PAROXETINE], the “fold change (FC)” value came out at 0.4 on Cytochrome P450 2D6 [8] and 0.6 at Cytochrome P450 2C9 [9].
In the case of `CC(C)NCC(O)COc1cccc2ccccc12` (stereo not given) [PROPRANOLOL], the “fold change (FC)” value stood at 0.6 on Cytochrome P450 2C9 [10], 120.7 on Cytochrome P450 2D6 [11] and 4.7 on Cytochrome P450 3A4 [12].
For `C=CC[C@@H]1/C=C(\C)C[C@H](C)C[C@H](OC)[C@H]2O[C@@](O)(C(=O)C(=O)N3CCCC[C@H]3C(=O)O[C@H](/C(C)=C/[C@@H]3CC[C@@H](O)[C@H](OC)C3)[C@H](C)[C@@H](O)CC1=O)[C@H](C)C[C@@H]2OC` [TACROLIMUS ANHYDROUS], the “fold change (FC)” value is 2.2 at Cytochrome P450 2D6 [13], 1.6 at Cytochrome P450 3A4 [14] and 1.3 at Cytochrome P450 2C9 [15].
